Test results taken from US20050112573A1, “Method of detecting toxic substance” (priority 2001, published 2005).

System: yeast genes (level of expressed mRNA)
Test: DNA chip analysis of expressed mRNA of yeast genes after 2 h culture with a toxic chemical substance
Format: cell-based, Saccharomyces cerevisiae S288C
In short: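 Values are treated-to-control fluorescence ratios from a whole-yeast-genome DNA chip (65° C, over 12 h hybridization) using Cy3/Cy5-labelled cDNA from mRNA. Log-phase S288C cells in YPD at 25° C were exposed 2 h to a toxicant at sublethal, growth-inhibiting concentration.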

manganese ethylenebis(dithiocarbamate) [(8)]
1.6: The level of expressed mRNA in the presence of chemical substance/ (yeast gene YJR054W, ratio to control without chemical) | The level of expressed mRNA in the presence of chemical substance/The level of expressed mRNA in the absence of chemical substance (yeast gene YKL041W)
1.0: The level of expressed mRNA in the presence of chemical substance/ (yeast gene YFL010C, ratio to control without chemical substance, 2 h culture) | The level of expressed mRNA in the presence of chemical substance/The level of expressed mRNA in the absence of chemical substance (yeast gene YFL043C) | The level of expressed mRNA in the presence of chemical substance/The level of expressed mRNA in the absence of chemical substance (yeast gene YGR189C) | The level of expressed mRNA in the presence of chemical substance/The level of expressed mRNA in the absence of chemical substance (yeast gene YGR257C) | The level of expressed mRNA in the presence of chemical substance/ (yeast gene YHR199C, ratio to control without chemical substance, 2 h culture) | The level of expressed mRNA in the presence of chemical substance/The level of expressed mRNA in the absence of chemical substance (yeast gene YJL073W)
0.8: The level of expressed mRNA in the presence of chemical substance/ (yeast gene YGR101W, ratio to control without chemical substance, 2 h culture) | The level of expressed mRNA in the presence of chemical substance/ (yeast gene YJL066C, ratio to control without chemical substance, 2 h culture) | The level of expressed mRNA in the presence of chemical substance/ (yeast gene YJL151C, ratio to control without chemical substance, 2 h culture) | The level of expressed mRNA in the presence of chemical substance/The level of expressed mRNA in the absence of chemical substance (yeast gene YKL039W)
1.1: The level of expressed mRNA in the presence of chemical substance/ (yeast gene YGL047W, ratio to control without chemical substance, 2 h culture) | The level of expressed mRNA in the presence of chemical substance/ (yeast gene YGR221C, ratio to control without chemical substance, 2 h culture) | The level of expressed mRNA in the presence of chemical substance/ (yeast gene YIL087C, ratio to control without chemical substance, 2 h culture) | The level of expressed mRNA in the presence of chemical substance/in the absence of chemical substance (yeast gene YJL070C) | The level of expressed mRNA in the presence of chemical substance/The level of expressed mRNA in the absence of chemical substance (yeast gene YJL089W) | The level of expressed mRNA in the presence of chemical substance/ (yeast gene YJR008W, ratio to control without chemical substance, 2 h culture) | The level of expressed mRNA in the presence of chemical substance/The level of expressed mRNA in the absence of chemical substance (yeast gene YJR086W)
1.2: The level of expressed mRNA in the presence of chemical substance/ (yeast gene YGL037C, ratio to control without chemical substance, 2 h culture) | The level of expressed mRNA in the presence of chemical substance/ (yeast gene YGL053W, ratio to control without chemical substance, 2 h culture) | The level of expressed mRNA in the presence of chemical substance/The level of expressed mRNA in the absence of chemical substance (yeast gene YKL008C)
1.3: The level of expressed mRNA in the presence of chemical substance/in the absence of chemical substance (yeast gene YGL035C) | The level of expressed mRNA in the presence of chemical substance/The level of expressed mRNA in the absence of chemical substance (yeast gene YGL158W) | The level of expressed mRNA in the presence of chemical substance/The level of expressed mRNA in the absence of chemical substance (yeast gene YGR136W) | The level of expressed mRNA in the presence of chemical substance/in the absence of chemical substance (yeast gene YGR287C) | The level of expressed mRNA in the presence of chemical substance/The level of expressed mRNA in the absence of chemical substance (yeast gene YHR139C) | The level of expressed mRNA in the presence of chemical substance/The level of expressed mRNA in the absence of chemical substance (yeast gene YHR142W)
1.8: The level of expressed mRNA in the presence of chemical substance/The level of expressed mRNA in the absence of chemical substance (yeast gene YJL116C)
1.7: The level of expressed mRNA in the presence of chemical substance/ (yeast gene YGR154C, ratio to control without chemical substance, 2 h culture) | The level of expressed mRNA in the presence of chemical substance/The level of expressed mRNA in the absence of chemical substance (yeast gene YHR071W)
0.4: The level of expressed mRNA in the presence of chemical substance/ (yeast gene YFL032W, ratio to control without chemical substance, 2 h culture) | The level of expressed mRNA in the presence of chemical substance/The level of expressed mRNA in the absence of chemical substance (yeast gene YJR004C)
1.5: The level of expressed mRNA in the presence of chemical substance/The level of expressed mRNA in the absence of chemical substance (yeast gene YFL028C) | The level of expressed mRNA in the presence of chemical substance/ (yeast gene YGR110W, ratio to control without chemical substance, 2 h culture) | The level of expressed mRNA in the presence of chemical substance/ (yeast gene YJL057C, ratio to control without chemical substance, 2 h culture) | The level of expressed mRNA in the presence of chemical substance/in the absence of chemical substance (yeast gene YJL167W)
1.9: The level of expressed mRNA in the presence of chemical substance/in the absence of chemical substance (yeast gene YJL216C)
0.9: The level of expressed mRNA in the presence of chemical substance/ (yeast gene YFL024C, ratio to control without chemical substance, 2 h culture) | The level of expressed mRNA in the presence of chemical substance/ (yeast gene YGR130C, ratio to control without chemical substance, 2 h culture) | The level of expressed mRNA in the presence of chemical substance/The level of expressed mRNA in the absence of chemical substance (yeast gene YHR004C) | The level of expressed mRNA in the presence of chemical substance/ (yeast gene YIL041W, ratio to control without chemical substance, 2 h culture) | The level of expressed mRNA in the presence of chemical substance/ (yeast gene YJL082W, ratio to control without chemical substance, 2 h culture) | The level of expressed mRNA in the presence of chemical substance/ (yeast gene YJL171C, ratio to control without chemical substance, 2 h culture) | The level of expressed mRNA in the presence of chemical substance/The level of expressed mRNA in the absence of chemical substance (yeast gene YKL013C)
2.0: The level of expressed mRNA in the presence of chemical substance/The level of expressed mRNA in the absence of chemical substance (yeast gene YGR213C)
24.7: The level of expressed mRNA in the presence of chemical substance/ (yeast gene YKL071W, ratio to control without chemical substance, 2 h culture)
3.0: The level of expressed mRNA in the presence of chemical substance/ (yeast gene YGL121C, ratio to control without chemical substance, 2 h culture)
1.4: The level of expressed mRNA in the presence of chemical substance/ (yeast gene YHR138C, ratio to control without chemical substance, 2 h culture) | The level of expressed mRNA in the presence of chemical substance/ (yeast gene YJL161W, ratio to control without chemical substance, 2 h culture)
0.6: The level of expressed mRNA in the presence of chemical substance/The level of expressed mRNA in the absence of chemical substance (yeast gene YIL123W)
0.7: The level of expressed mRNA in the presence of chemical substance/ (yeast gene YGL199C, ratio to control without chemical substance, 2 h culture) | The level of expressed mRNA in the presence of chemical substance/The level of expressed mRNA in the absence of chemical substance (yeast gene YGL229C) | The level of expressed mRNA in the presence of chemical substance/ (yeast gene YIL023C, ratio to control without chemical) | The level of expressed mRNA in the presence of chemical substance/The level of expressed mRNA in the absence of chemical substance (yeast gene YIL140W) | The level of expressed mRNA in the presence of chemical substance/ (yeast gene YJL152W, ratio to control without chemical substance, 2 h culture)
